Results on one compound are retold here after patent US20080004266A1, “Method for treating proliferative disorders associated with protooncogene products” (priority 2006, published 2008).

Data set [1] concerns human chronic myelogenous leukemia tumor cell line K-562. As to the kind of experiment: K-562 (Bcr-Abl) SCID mouse xenograft model. Format: in vivo, human (xenograft in SCID mouse). The note with it: 35 mg/kg i.v. 5 times per week, day 17. The protocol:
Growth of this tumor cell line is dependent upon the expression of the Bcr-Abl fusion protein (C. Gambacarti-Passerini et al., Blood Cells Mol. Dis. 23:380-394, 1997). The cells were cultured in growth media prepared with Iscove's Modified Dulbecco's Media, 10% fetal bovine serum (FBS), 1% 100× Penicillin-Streptomycin, 1% 100× sodium pyruvate and 1% 100×MEM non-essential amino acids. FBS was obtained from ATCC and all other reagents were obtained from Invitrogen Corp. (Carlsbad, Calif., USA). Cells that had been cryopreserved in liquid nitrogen were rapidly thawed at 37° C. and transferred to a tissue culture flask containing growth media and then incubated at 37° C. in a 5% CO2 incubator. […]
Seven to eight week old, female CB17/Icr-Prkdc^scid/Crl (SCID) mice were obtained from Charles River Laboratories (Wilmington, Mass., USA). […] To implant K-562 tumor cells into SCID mice, cell cultures were centrifuged to pellet the cells, the supernatant was aspirated, the cell pellet was resuspended in 10 ml of growth media and the cell number determined using a hemocytometer. […]
Tumors were then permitted to develop in vivo until the majority reached 100-200 mm^3 in tumor volume, which typically required 1-2 weeks following implantation. […] Tumor volumes (V) were calculated by caliper measurement of the width (W), length (L) and thickness (T) of tumors using the following formula: V=0.5236×(L×W×T). […]

In data set [2] the test system is NPM-ALK. Nature of the data set: Degradation of NPM-ALK in Karpas-299 cells (Western blot). It is filed as cell-based, human. The note with it: 18 hours. The protocol:
Anaplastic large-cell lymphoma cells, Karpas-299 cells (the German resource center for biological material) (2×10^6 cells), which harbor the fusion protein NPM-ALK, were treated (0.05 μM, 0.1 μM and 0.5 μM) with either Compound 226 or 17-AAG. After 18 hours and the cells were lysed with 1× lysis buffer and a western blot was perform using an anti-ALK antibody to detect and phosphorylated NPM-ALK and total NPM-ALK.
(In general: Immunoblotting shows a protein as a band on a membrane.)

The test system of data set [3] is P815 cells (c-Kit D814Y). Nature of the data set: Cell survival in mouse mastacytoma cell line P815 (Cell Counting Kit-8). It is filed as cell-based. The note with it: 72 hours. The protocol:
Mouse mastacytoma cell line P815 was obtained from the American Type Culture Collection (ATCC; Manassas, Va., USA). […] P815 cells (20,000 cells/well) were cultured in 96-well plates and maintained at 37° C. for several hours. […] 17AAG and 17DMAG are Hsp90 inhibitors that are currently in clinical trials and are used here as positive controls for Hsp90 inhibition. […] Cell survival was measured with Cell Counting Kit-8 (Dojindo Laboratories, Cat # CK04).
Background: Tetrazolium assays rely on reduction of a dye to a coloured formazan, in cell work by metabolically active cells.

Several values for one entry are separate records, joined by “and”; a condition that tells them apart may be missing. Equal values may be shown once.

Take `CC(C)c1cc(-c2nnc(O)n2-c2ccc3c(ccn3C)c2)c(O)cc1O` [Compound 226, 3-(2,4-di-hydroxy-5-isopropyl-phenyl)-4-(1-methyl-indol-5-yl)-5-hydroxy-[1,2,4] triazole]: in data set [1], the “average bodyweight loss relative to the start of the study” value was −12.4% (+/−1.4 SEM). Besides, the “% T/C value” in data set [1] (SCID mice, 6 doses, 35 mg/kg) was 25% and 24.7%. Moreover, in data set [2] (0.05 μM and 0.1 μM), the “degradation of phosphorylated and total NPM-ALK” value was “partial degradation”. For the same compound, the “degradation of phosphorylated NPM-ALK” value in data set [2] (0.5 μM) is on record as “total degradation”. Also, the “IC50 for cell survival (comparison)” value in data set [3] is “lower IC50 for cell survival than 17AAG, 17DMAG or Gleevec”.
